Our source for the melting point values is a melting point compilation (Tetko et al.; mined from patent text by program, amines drawn as free bases though some values may be those of a salt).

Some results are limits rather than exact numbers.

As a reminder, the melting point is the temperature of the solid-liquid transition.

Take `O=C(Cn1c2c(c3c4c(ccc31)OCC=C4)CCN(Cc1ccccc1)CC2)Nc1ccccc1`: the melting point was in the range of 134 to 136 °C. The same measure for `CC12C=CC(=O)NC1CCc1cc(Cl)ccc12` (stereo not drawn): 151 to 154 °C.

The compound `Clc1ccc(OCSc2ncc(Cl)cn2)cc1` gave a melting point of 120 °C. With `Cn1cc(CCO)c2c3c(c(-c4ccccc4Cl)cc21)C(=O)NC3=O`, the melting point lay within 225 to 229 °C. On to `CC(C)c1ccc2c(c1)OC1(O)c3ccccc3C(=O)C21O` (stereo not drawn), for which the melting point is 195 to 198 °C. In turn, `CCOC(=O)C(Cc1ccccc1[N+](=O)[O-])(NC=O)C(=O)OCC` displayed a melting point of 129 to 132 °C. In turn, `CCCCCC(=O)Nc1nc2cc(Cl)ccc2nc1NC(=O)CC` had a melting point of 158 to 160 °C. For `O=C(O)Cc1coc2cc(OCc3ccccc3OCc3ccc(C(F)(F)F)cc3)ccc12`, the melting point was 126 to 127 °C. With `COC(=O)CNc1cccc(Br)c1` the figure was 66 to 68 °C.

In the case of `CCOc1nc2ccccc2nc1N(C)C(=O)N1CCN(c2cc(OC)cc(OC)c2)CC1`, the melting point was in the range of 159 to 161 °C. Consider `N#CNC1=NC(c2ccc(OC(F)(F)F)cc2)(c2cccc(-c3cncnc3)c2)C2=NCCCN12` (stereo not drawn), for which the melting point fell in the range of 227 to 231 °C. With `Cc1ccc(C)c(-c2cn(C)cc(-c3ccccc3)c2=O)c1` the figure was 188 to 190 °C. As to `Cc1cc2c(NCc3ccc4c(c3)OCO4)nc(-c3ccc(C(=O)O)cc3)nc2s1`, the melting point is over 250 °C. With `CCCCS(=O)(=O)NC1Cc2ccc(C(=O)CCC(=O)O)cc2C1` (stereo not drawn), the melting point lay in the range of 138 to 140 °C.

As to `CCOC(=O)CON(C)C(=S)Nc1ccc2c(c1)CCC2`, the melting point is 69 to 71 °C. Consider `CC(=O)N=NCc1ccc(OCCCCCOc2ccc(C(=O)N(c3ccccc3)C(C)C)c(Cl)c2)cc1`, for which the melting point was in the range of 58 to 60 °C. In the case of `O=S(=O)(c1ccc(Cl)cc1)c1ccc(NCc2nnn[nH]2)cc1`, the melting point was 102 to 105 °C. `N#Cc1ccc2nccn2c1` showed a melting point of 166 to 167 °C.

Turning to `Cc1oc(-c2cccs2)nc1CCOc1ccc(N)cn1`, the melting point was 120 to 122 °C. In turn, `COc1ccc(C(=O)N2CCN(c3ccc([N+](=O)[O-])c(C=O)c3)CC2)cc1OC` gave a melting point of 196 to 198 °C. `COc1ccc(C(=O)CC(C)C)c(Cl)c1Cl` had a melting point of 49 to 54 °C. `CCOc1cc(C#N)ccc1C(=O)Nc1cc(Cl)c(Cl)cc1N` had a melting point of 195 to 198 °C. `Cc1ccc(-c2cncc(OC3SCC(O)C(O)C3O)c2)cc1C` (stereo not drawn) yielded a melting point of 184 °C. For `CC(C)(C)OC(=O)Nc1cc(CC#N)c(C#Cc2ccccc2)cc1NC(=O)CC(=O)c1cccc(C#N)c1`, the melting point worked out at 98 °C.

Regarding `COc1cc(OC)nc(NC(=O)NS(=O)(=O)C(C)c2ccccc2[N+](=O)[O-])n1` (stereo not drawn), the melting point lay in the range of 168 to 170 °C. Compound `O=c1c(CCCCCCCc2ccncc2)cc2cccnc2n1-c1cccc([N+](=O)[O-])c1` came in with a melting point of 189 to 192 °C. Regarding `CC(Oc1ccc(-c2ccc(C#N)c(C#N)c2)cc1)C(O)CCc1cccnc1` (stereo not drawn), the melting point was in the range of 136 to 137 °C.

On to `CCC(=NNc1ccccc1)c1cc(Cl)ccc1NS(=O)(=O)C(F)(F)F`, for which the melting point fell in the range of 128 to 129 °C. Compound `O=C(O)Cc1cc(Cl)c(O)cc1F` came in with a melting point of 137 to 138 °C. Turning to `O=S(=O)(c1ccccc1)n1cc(I)c2c(OCc3ccccc3)ccnc21`, the melting point was in the range of 177 to 179 °C. As to `CC(=O)SCC(Cc1ccccc1)C(=O)Nc1cccc(C(=O)N[C@@H](Cc2ccccc2)C(=O)OCc2ccccc2)c1` (stereo partly drawn), the melting point lay within 89 to 91 °C. `O=c1c2cc(Cl)ccc2nc2n1CCCC2=Cc1ccccc1` gave a melting point of 121 to 123 °C.

In the case of `Cc1nnc(-c2ccnc3[nH]c(CCc4ccccc4)cc23)o1`, the melting point was 210 °C. On to `CC(=O)N1CCCc2c1n(-c1ccccc1)c1c(c2=O)CCc2ccccc2-1`, for which the melting point was 178 to 182 °C.

On to `COc1cc(OCCCCN2CCCN(CCCCOc3cc(OC)c(OC)c(OC)c3)CC2)cc(OC)c1OC`, for which the melting point lay in the range of 124 to 126 °C. Consider `COC(=O)COc1ccc(C(=O)NN(C)C(=O)c2ccc(C(N)=S)cc2)cc1`, for which the melting point is 169 to 170 °C.

On to `CCN1C(=O)C(NC(=O)C(F)(F)F)CCc2c1ccc(Nc1ncc(Cl)c(N[C@H]3[C@@H](C(N)=O)[C@@H]4C=C[C@H]3C4)n1)c2OC` (stereo partly drawn), for which the melting point is 167 to 176 °C. The compound `CC(C)(C)COc1ccc(NC(=O)c2cc3ccccc3s2)cc1C#N` came in with a melting point of 227 °C. As for `C[C@@H](C(=O)O)N(C(=O)[C@@H]1CS[C@H](c2ccccc2O)N1C(=O)CCSC(=O)c1ccccc1)c1ccccc1`, the melting point lay within 95 to 100 °C. For the compound `CC1(C)CCCNC1C(=O)O` (stereo not drawn), the melting point is over 305 °C. Take `COc1cc2ncnc(Nc3ccc(F)c(Cl)c3)c2cc1OCC1(C)COC1`: the melting point was 226 to 227 °C. With `COc1ccc2nc(OC)cc(C)c2c1` the figure was 58 to 59 °C; with `CCOC(=O)C(C#N)Cc1cc(OC)c(OC)cc1C` (stereo not drawn), 39 to 40 °C; with `COc1ccccc1CNc1ccc2c(C(=N)c3ccc(F)cc3)cccc2n1`, 155 °C. The same measure for `O=c1n(CO)c2cccnc2n1-c1ccc2c(c1)OCO2`: 268 °C; for `COC1(c2cc(F)cc(S(=O)(=O)c3ccc4c(c3)CC/C4=N\O)c2)CCOCC1`: 225 to 226 °C; for `Cc1cc(F)ccc1C(=C(C=O)c1nnnn1C)c1ccc(F)cc1C`: 135 to 136 °C.

The compound `Nc1cnc(Br)c(N)n1` returned a melting point of 176 to 178 °C. Consider `O=C1NC(=O)C(Cc2ccc(O)c(C(=O)NCc3ccc(C(F)(F)F)cc3)c2)S1` (stereo not drawn), for which the melting point lay within 146 to 148 °C. `Cc1ccc(-c2ccccc2)c(NC(=N)N2CCOCC2)c1` registered a melting point of 154 to 155 °C.

`CSc1ccc(C(C)Nc2nc(N)nc(C(F)(F)F)n2)cc1` (stereo not drawn) showed a melting point of 111 °C. `COC(=O)C1=C(C)Nc2nc(N)nc(N)c2C1c1ccccc1F` (stereo not drawn) registered a melting point of 208 °C. The same measure for `CCCCCCCCCCCCCCCCCC(=O)NCCO`: 96 to 99 °C; for `O=[N+]([O-])C(c1ccccc1)(c1ccccc1)[N+](=O)[O-]`: 158 °C. The same measure for `COC(=O)c1cc(-c2ccc(OCc3ccccc3)cc2)c(=O)n2ccc3ccsc3c12`: 169 to 171 °C. `CCC(CC)Nc1cc(C)nc(Oc2c(C)cc(C)cc2C)c1C(=O)OC`: the melting point fell in the range of 98 to 102 °C. The same measure for `O=c1cc(N2CCOCC2)oc2ccc(Br)cc12`: 147 to 149 °C; for `CCOC(=S)c1c(COC)nc2cc(F)c(F)cc2c1O`: 126 to 129 °C; for `CNC(=O)C(=O)CCCCCCc1cnc(-c2ccc(Br)cc2)o1`: 90 to 92 °C.

`CCCOc1cc(-c2c(C(=O)OCC)c(Cn3cnnc3)nc3cc(OC)c(OC)cc23)ccc1OC` returned a melting point of 154 to 155 °C. With `CC(=O)c1c(-c2ccc(S(C)=O)cc2)[nH]c(-c2ccncc2)c1C` (stereo not drawn) the figure was 249 to 250 °C; with `Cc1ccc(C(=O)c2c(C)cc(C)cc2OCC(O)CNC(C)C)cc1` (stereo not drawn), 89 to 91 °C. The compound `CC(Br)(CBr)CS(=O)(=O)Oc1c(Cl)cccc1Cl` (stereo not drawn) gave a melting point of 74 to 76 °C.

As for `CN1CCC(N2C(=O)CN=C(c3ccccc3)c3ccccc32)CC1`, the melting point lay within 158 to 159 °C. The compound `CS(=O)(=O)c1ccc(C(=O)Nc2ccc(-n3nc(C(F)(F)F)cc3C(F)(F)F)cc2)cc1` showed a melting point of 216 to 218 °C. For the compound `Cc1cc(CN2CCC(N(C)S(=O)(=O)c3ccc(Nc4nccc(Nc5ccc(F)c(C)c5)n4)cc3)CC2)[nH]n1`, the melting point came out at 130 °C. Compound `Cc1nc(-n2cccc(C(F)(F)F)c2=O)sc1C(=O)NCc1ccccc1` returned a melting point of 203 to 204 °C. `C#CC1(OC(C)=O)CCC2C3CCC4=CC(=O)C=CC4(C)C3CCC21C` (stereo not drawn): the melting point is 172 to 173 °C. As to `CC(C)Sc1cc([Si](C)(C)C)oc1C(=O)O`, the melting point is 181 to 183 °C. With `CN(C)Nc1cc(Cl)c(Cl)cc1[N+](=O)[O-]` the figure was 138 to 143 °C.

Compound `CCOc1c(/C=C\CO)cc(C(C)(C)C)cc1C(C)(C)C` had a melting point of 93 to 94 °C. `COc1nc2cc(Cl)ccc2n2cnnc12` displayed a melting point of 250 to 252 °C. With `CSc1ncc(C(=O)NCCO)c(Nc2ccc3[nH]ncc3c2)n1` the figure was over 270 °C.

In turn, `CC(=O)c1c(CBr)n(S(=O)(=O)c2ccccc2)c2ccc(Cl)cc12` displayed a melting point of 155 °C. With `COc1ccc(S(=O)(=O)C(CC=C(C)C)(CC=C(C)C)C(=O)NO)cc1` the figure was 93 to 96 °C; with `Cc1coc2c1C(=O)CC(c1ccc(F)cc1F)C2` (stereo not drawn), 101 to 102 °C; with `CN1CCC(c2c[nH]c3ccc(NC(=O)c4ccc(F)cc4Cl)cc23)CC1`, 159 to 162 °C. On to `CCNC(=O)c1ccnc([N+](=O)[O-])c1`, for which the melting point lay in the range of 65 to 67 °C. For `CN1C(=O)SC(Cc2cn(-c3ccccc3)nc2OCc2ccccc2)C1=O` (stereo not drawn), the melting point lay in the range of 115 to 116 °C.

Regarding `COc1ccc(Cc2nc3n(c2-c2ccccc2)CCS3)cc1`, the melting point is 273 to 274 °C.

`NCCCCn1cnc2c(N)ncnc21` showed a melting point of 62 to 64 °C.

In turn, `c1ccc2c(c1)Nc1cc(-c3csc(CN4CCSCC4)n3)ccc1S2` gave a melting point of 229 to 231 °C. As to `O=C(NCCN1CCC(O)(c2ccc(Cl)cc2)CC1)c1ccccc1Br`, the melting point worked out at 121 °C. For `O=C(O)CCCCCCCn1cnc(-c2ccc(O)cc2)c1-c1ccc(O)cc1`, the melting point was in the range of 203 to 204 °C.

In turn, `O=C1CCC2=C1C(c1ccc(F)c(I)c1)C1=C(CCS1)N2` (stereo not drawn) showed a melting point of over 250 °C. Compound `COc1cc(NC(=O)N(c2ccc(N(C)C)cc2)C2CCCCCC2)c(OC(=O)[C@H](C)NC(=O)OCc2ccccc2)c(C(C)(C)C)c1` displayed a melting point of 126 °C. Regarding `CC1(C)OC[C@H]([C@@H](CS(=O)(=O)c2ccc(Oc3ccc(C(F)(F)F)cc3)cc2)N(O)C=O)O1`, the melting point was in the range of 141 to 143 °C. `CNCC1Cc2cc(F)cc(-c3c(Cl)cccc3Cl)c2O1` (stereo not drawn) had a melting point of 140 to 142 °C.
